The first experiment has as its target human SSTR4 (Homo sapiens, UniProt P31391). Briefly: Evaluation of agonist activities using human SSTR4-stably expressing cells (aequorin luminescence). In kind it is cell-based. Set-up: expressed in transfected cells; host or cells: HEK293. Conditions: Tables 25 to 27. As to the method:
Evaluation of Agonist Activities Using Cells that stably expressing human-derived SSTR4 (human SSTR4-stably expressing cells)
(1) Human SSTR4-Stably Expressing Cells
Human SSTR4-stably expressing cells were prepared, and cultured. Specifically, HEK293 cells, human kidney-derived cells, were used as host cells. By introducing pcDNA3.1 (cat. No. V79020, invitrogen, Carlsbad, Calif., USA) to which human SSTR gene was inserted into HEK293 cells, human SSTR4-stably expressing cell line was obtained. For selection, G418 (cat. No. 16513-84, Nacalai tesque, Japan) was used.
As the culture medium, D-MEM medium (cat. No. 11995, GIBCO, USA), containing 10% FBS and 200 μg/mL G418, was used, the culture was performed in a 225 cm^2 flask (cat. No. 11-006-010, Iwaki, Japan).
At about 80% confluence, the cells were harvested by treating with 20-fold diluted 0.25% Trypsin-EDTA (cat. No. 35554-64, Nacalai, tesque, Japan). The harvested cells were prepared at a reaction medium composed of Hanks Buffer (cat. No. 14065-056, invitrogen, Carlsbad, Calif., USA)/20 mM Hepes (cat. No. 15630-080, invitrogen, Carlsbad, Calif., USA), and 0.1% BSA (cat. No. A7906, Sigma Aldrich, USA) to 70000 cells/mL. Gα16 and apoaequorin were transiently introduced to the harvested cells, and the cells were seeded to a 384 well plate (cat. No. 781090, Greiner, Germany) at about 2000 cells/30 μL/well. On the next day of cell seeding, Coelenterazine H (cat. No. S2011, Promega, USA) was added to each well (10 μL/well) to make a final concentration of 0.5 μmol/L, and the plate was centrifuged. Then, the plate was left at room temperature for 4 hours in shaded state.
(2) Preparation of Test Compounds
DMSO solution of each test compound having 1000-fold larger concentration than the final concentration was prepared. The DMSO solutions were made to have 10-fold concentration than the final concentration with Hanks/20 mmol/L Hepes/0.1% BSA.
(3) Evaluation of Agonist Activity
For detection of luminescence signal due to SSTR4-stimulation, FDSS7000 (manufactured by Hamamatsu Photonics K.K.) was used. To plates having cells and the luminescence substrate, solutions of test compounds were added, then each luminescence signal was measured for 90 seconds, and each relative luminescence unit (RLU) was calculated. Based on luminescence signal from the wells to which a 1 μmol/L somatostatin solution was added taken as 100%, agonist activity of each test compound was evaluated.
human SSTR4, sequence (P31391 whole entry): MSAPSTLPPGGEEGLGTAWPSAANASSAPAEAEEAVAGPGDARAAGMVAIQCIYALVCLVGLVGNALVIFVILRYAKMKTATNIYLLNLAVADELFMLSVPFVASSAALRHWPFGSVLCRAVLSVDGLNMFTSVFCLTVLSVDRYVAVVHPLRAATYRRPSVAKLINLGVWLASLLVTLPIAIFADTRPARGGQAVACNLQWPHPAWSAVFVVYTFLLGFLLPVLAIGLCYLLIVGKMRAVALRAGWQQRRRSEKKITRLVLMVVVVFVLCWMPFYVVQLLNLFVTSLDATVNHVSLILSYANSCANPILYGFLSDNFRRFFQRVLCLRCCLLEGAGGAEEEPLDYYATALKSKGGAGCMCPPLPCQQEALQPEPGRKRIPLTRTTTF
On to `COc1cc(Cl)c(Cl)cc1C(C)(C)NC(=O)[C@H]1CCCN(C)C1` [Example 52], for which the “SSTR4 agonist activity compared with other compounds” value was “stronger SSTR4 agonist activity”.

`CCN1CCC[C@H](C(=O)NC(C)(C)c2ccccc2Cl)C1` [Example 110, (3S)—N-[2-(2-chlorophenyl)propane-2-yl]-1-ethylpiperidine-3-carboxyamide]: the “SSTR4 agonist activity compared with other compounds” value was “stronger SSTR4 agonist activity”.

Still in this experiment, the particulars now being: luminescence signal; 1 μmol/L somatostatin taken as 100%.
Usually EC50 stands for the midpoint of the concentration-response curve. The low end stands for higher potency in that assay, the high end for lower potency in that assay. Consider `CN1CCC[C@H](C(=O)NC(C)(C)c2cccc(Cl)c2)C1` [Example 41], for which the 50% effective concentration (EC50) amounted to 12.8 nM.

`CN1CCC[C@H](C(=O)NC(C)(C)c2ccc(Cl)cc2)C1` [Example 42] displayed a concentration giving a half-maximal response (EC50) of 45.6 nM.

As for `Cc1ccccc1C(C)(C)NC(=O)[C@H]1CCCN(C)C1` [Example 43, (3S)—N-[2-(2-methylphenyl)propane-2-yl]-1-methylpiperidine-3-carboxamide], the EC50 was 13 nM.

Regarding `Cc1cccc(C(C)(C)NC(=O)[C@H]2CCCN(C)C2)c1` [Example 44], the concentration giving a half-maximal response (EC50) came to 28.2 nM.

In turn, `Cc1ccc(C(C)(C)NC(=O)[C@H]2CCCN(C)C2)cc1` [Example 45] gave an EC50 of 84.9 nM.

In the case of `CN1CCC[C@H](C(=O)NC(C)(C)c2cccc(Cl)c2F)C1` [Example 46], the EC50 worked out at 21.6 nM.

`Cc1ccc(C(C)(C)NC(=O)[C@H]2CCCN(C)C2)cc1Cl` [Example 47, (3S)—N-[2-(3-chloro-4-methylphenyl)propane-2-yl]-1-methylpiperidine-3-carboxamide] had an EC50 of 8 nM.

Consider `Cc1cc(C(C)(C)NC(=O)[C@H]2CCCN(C)C2)ccc1Cl` [Example 48], for which the concentration giving a half-maximal response (EC50) amounted to 10 nM.

With `Cc1ccc(C)c(C(C)(C)NC(=O)[C@H]2CCCN(C)C2)c1` [Example 49], the concentration giving a half-maximal response (EC50) is 12 nM.

As for `COc1ccc(Cl)cc1C(C)(C)NC(=O)[C@H]1CCCN(C)C1` [Example 51, (3S)—N-[2-(5-chloro-2-methoxylphenyl)propane-2-yl]-1-methylpiperidine-3-carboxamide], a half-maximal response (EC50) required 5 nM.

`COc1cc(Cl)c(Cl)cc1C(C)(C)NC(=O)[C@H]1CCCN(C)C1` [Example 52]: the half-maximal effective concentration (EC50) turned out to be 1.2 nM.

For `COc1ccccc1C(C)(C)NC(=O)[C@H]1CCCN(C)C1` [Example 53], a half-maximal effect (EC50) was put at 8.8 nM.

Turning to `COc1ccc(F)cc1C(C)(C)NC(=O)[C@H]1CCCN(C)C1` [Example 54, (3S)—N-[2-(5-fluoro-2-methoxylphenyl)propane-2-yl]-1-methylpiperidine-3-carboxamide], the half-maximal effective concentration (EC50) is 8.2 nM.

Take `CN1CCC[C@H](C(=O)NC(C)(C)c2ccccn2)C1` [Example 56]: the EC50 was > 100 nM.

As to `CN1CCC[C@H](C(=O)NC(C)(C)c2cccnc2)C1` [Example 57], the 50% effective concentration (EC50) was > 100 nM.

With `CN1CCC[C@H](C(=O)NC(C)(C)c2ccncc2)C1` [Example 58], the concentration for a half-maximal effect (EC50) was > 100 nM.

For `CN1CCC[C@H](C(=O)NC(C)(C)c2ccsc2)C1` [Example 59], the concentration giving a half-maximal response (EC50) was > 100 nM.

Turning to `CN1CCC[C@H](C(=O)NC(C)(C)c2ccccc2OC(F)(F)F)C1` [Example 60, (3S)—N-{2-[2-(trifluoromethoxy)phenyl]propane-2-yl}-1-methylpiperidine-3-carboxamide], the concentration giving a half-maximal response (EC50) worked out at 4.8 nM.

On to `CN1CCC[C@H](C(=O)NC(C)(C)c2cccc(S(C)(=O)=O)c2)C1` [Example 62], for which the EC50 is > 100 nM.

Turning to `CN1CCC[C@H](C(=O)NC(C)(C)c2ccc(S(C)(=O)=O)cc2)C1` [Example 63], the EC50 is > 100 nM.

In the case of `CN1CCC[C@H](C(=O)NC(C)(C)c2ccccc2S(C)(=O)=O)C1` [Example 64], the half-maximal effective concentration (EC50) was > 100 nM.

Consider `CSc1ccccc1C(C)(C)NC(=O)[C@H]1CCCN(C)C1` [Example 65], for which the response was half-maximal at 6.2 nM (EC50).

`CN1CCC[C@H](C(=O)NC(C)(C)c2ccccc2OC(F)F)C1` [Example 66] registered a concentration for a half-maximal effect (EC50) of 20.5 nM.

Take `CN1CCC[C@H](C(=O)NC(C)(C)c2ccccc2Br)C1` [Example 67, (3S)—N-[2-(2-bromophenyl)propane-2-yl]-1-methylpiperidine-3-carboxamide]: the response was half-maximal at 1.5 nM (EC50).

Consider `CN1CCC[C@H](C(=O)NC(C)(C)c2ccc(Br)cc2)C1` [Example 68], for which the EC50 was > 100 nM.

In the case of `CN1CCC[C@H](C(=O)NC(C)(C)c2ccc(F)cc2)C1` [Example 69], the concentration giving a half-maximal response (EC50) is > 100 nM.

Regarding `COc1cccc(C(C)(C)NC(=O)[C@H]2CCCN(C)C2)c1` [Example 70], the concentration giving a half-maximal response (EC50) was > 100 nM.

Take `CN1CCC[C@H](C(=O)NC(C)(C)c2cccc(F)c2Cl)C1` [Example 71, (3S)—N-[2-(2-chloro-3-fluorophenyl)propane-2-yl]-1-methylpiperidine-3-carboxamide]: the EC50 came out at 3.3 nM.

Molecule `CN1CCC[C@H](C(=O)NC(C)(C)c2ccc(F)cc2Cl)C1` [Example 72, (3S)—N-[2-(2-chloro-4-fluorohenyl)propane-2-yl]-1-methylpiperidine-3-carboxamide] displayed an EC50 of 2.8 nM.

Molecule `CN1CCC[C@H](C(=O)NC(C)(C)c2cc(F)ccc2Cl)C1` [Example 73, (3S)—N-[2-(2-chloro-5-fluorohenyl)propane-2-yl]-1-methylpiperidine-3-carboxamide] returned an EC50 of 7.1 nM.

On to `CN1CCC[C@H](C(=O)NC(C)(C)c2c(F)cccc2Cl)C1` [Example 74], for which the EC50 turned out to be 20.9 nM.

Molecule `CN1CCC[C@H](C(=O)NC(C)(C)c2cccc(F)c2)C1` [Example 75] came in with an EC50 of 73.3 nM.

`CCc1ccccc1C(C)(C)NC(=O)[C@H]1CCCN(C)C1` [Example 76, (3S)—N-[2-(2-ethylphenyl)propane-2-yl]-1-methylpiperidine-3-carboxamide] gave a 50% effective concentration (EC50) of 1.9 nM.

Turning to `CN1CCC(C(=O)NC(C)(C)c2cccc3ccccc23)C1` (stereo not shown) [Example 77], a half-maximal effect (EC50) was put at 3 nM.

As to `CN1CCC(C(=O)NC(C)(C)c2ccccc2)C1` (stereo not shown) [Example 78], the concentration giving a half-maximal response (EC50) is > 100 nM.

`CN1CC[C@H](C(=O)NC(C)(C)c2ccccc2Cl)C1` [Example 79] showed an EC50 of 43.5 nM.

In the case of `CN1CC[C@@H](C(=O)NC(C)(C)c2ccccc2Cl)C1` [Example 80], the half-maximal effective concentration (EC50) was > 100 nM.

As to `CN1CC(O)CC(C(=O)NC(C)(C)c2cccc3ccccc23)C1` (stereo not shown) [Example 83], the EC50 turned out to be 7.4 nM.

Consider `CC1CC(C(=O)NC(C)(C)c2cccc3ccccc23)CN(C)C1` (stereo not shown) [Example 86], for which the midpoint of the response, the EC50, lay at 16.2 nM.

For the molecule `COC1CC(C(=O)NC(C)(C)c2cccc3ccccc23)CN(C)C1` (stereo not shown) [Example 91], a half-maximal response (EC50) required 2.6 nM.

`CN1CC(F)CC(C(=O)NC(C)(C)c2cccc3ccccc23)C1` (stereo not shown) [Example 92] returned a concentration for a half-maximal effect (EC50) of 3.2 nM.

`CN1CC(C(=O)NC(C)(C)c2cccc3ccccc23)CC(C)(C)C1` (stereo not shown) [Example 93]: the concentration giving a half-maximal response (EC50) is 6 nM.

`CN1CC(C(=O)NC(C)(C)c2cccc3ccccc23)CC(F)(F)C1` (stereo not shown) [Example 94] had a concentration for a half-maximal effect (EC50) of 28.8 nM.

Molecule `CN1CC(C(=O)NC(C)(C)c2cccc(Cl)c2Cl)CCC1(C)C` (stereo not shown) [Example 97] came in with an EC50 of 85 nM.

For `CN1CCCC(C(=O)NC(C)(C)c2cccc(Cl)c2Cl)C1c1ccccc1` (stereo not shown) [Example 98], the 50% effective concentration (EC50) was > 100 nM.

`CC1CC(C(=O)NC(C)(C)c2cccc(Cl)c2Cl)CN(C)C1` (stereo not shown) [Example 100] came in with a half-maximal effective concentration (EC50) of 27.9 nM.

`CN1CC(C(=O)NC(C)(C)c2cccc(Cl)c2Cl)CC(F)(F)C1` (stereo not shown) [Example 101] returned an EC50 of 33.6 nM.

Regarding `CCC1CCC(C(=O)NC(C)(C)c2cccc(Cl)c2Cl)CN1C` (stereo not shown) [Example 102], the concentration for a half-maximal effect (EC50) was determined as 61.8 nM.

Regarding `COC1CC(C(=O)NC(C)(C)c2cccc(Cl)c2Cl)CN(C)C1` (stereo not shown) [Example 103], the concentration giving a half-maximal response (EC50) was determined as 31.4 nM.

In turn, `CCN1CCC[C@H](C(=O)NC(C)(C)c2ccccc2Cl)C1` [Example 110, (3S)—N-[2-(2-chlorophenyl)propane-2-yl]-1-ethylpiperidine-3-carboxyamide] came in with an EC50 of 2.8 nM.
